Reference: US9796671B2, “Aurora kinase inhibitors” (REGENTS OF THE UNIVERSITY OF MINNESOTA, priority 2012, dated 2017)

Tests used:
[1] = tested on: histone H3 phosphorylation on Ser10; assay: Histone H3 (Ser10) phosphorylation in lung cancer cells (Western blot); format: cell-based; conditions: dose- and time-dependent
Source text: Proteins are resolved by SDS-PAGE and transferred onto polyvinylidene difluoride membranes (Millipore, Mass.), which are blocked with nonfat milk and hybridized with specific primary antibodies. The protein bands are visualized using an enhanced chemiluminescence reagent (GE Healthcare, Pittsburgh, Pa.) after hybridization with a horseradish peroxidase-conjugated secondary antibody.
Phosphorylation of a highly conserved serine residue (Ser10) in histone H3 is thought to be crucial for entry into mitosis.

A549 cells [2] = assay: Apoptosis (Annexin V/PI staining); format: cell-based, human; conditions: A549, 5 μM, 72 hours
Method: (§1) Cells are plated in 60-mm plates and treated or not treated with Compound 1 for the indicated time. At each time point, cells are fixed in 70% ethanol and stored at −20° C. for 24 h. After staining, the cell cycle distribution or apoptosis is determined using a BD FACSCalibur Flow Cytometer (BD Biosciences, San Jose, Calif.). Aurora B inhibition leads to failure in cytokinesis and abnormal exit from mitosis, which could result in polyploidy cells, cell cycle arrest, and ultimately apoptosis. The ability to induce polyploidy cells was further examined in A549 cells treated or not treated with Compound 1. […] In addition, Compound 1 treatment for 48 hours caused an increase in the number of A549 and H520 cells occupying the G2/M phase. Moreover, exposure of these cells to Compound 1 for 72 hours induced apoptosis as measured by Annexin V/PI staining. For example, exposure to 5 μM Compound 1 induced 48% or 82% apoptosis in A549 cells and H520 cells, compared to 8% or 38% in untreated control cells, respectively.

H520 cells [3] = assay: Apoptosis (Annexin V/PI staining); format: cell-based, human; conditions: H520, 5 μM, 72 hours
Method: as §1

A549 cells [4] = assay: Anchorage-independent growth of human lung cancer cells; format: cell-based
Method: (§2) Tumor cells are suspended in basal medium Eagle (BME) medium and added to 0.6% agar, with different concentrations of Compound 1 in a base layer and a top layer of 0.3% agar. The cultures are maintained at 37° C. in a 5% CO2 incubator for 1 to 2 weeks and then colonies are counted under a microscope using the Image-Pro Plus software (v.4) program (Media Cybernetics, Silver Spring, Md.).
(§3) The effect of Compound 1 treatment on anchorage-independent growth of human lung cancer cells, including A549, H1650, and H520 cells was then examined. […] Compound 1 at 0.5 or 1 μM caused a decrease of more than 80% or 90% compared to control in all cell lines detected.

H1650 cells = assay: as above; format: cell-based
Method: as §2, §3

H520 cells [5] = assay: as above; format: cell-based
Method: as §2, §3

CHK2 = target: T1, CHK2 (Homo sapiens, UniProt O96017); assay: Kinase profile assay (Millipore); format: biochemical; conditions: read-out: kinase activity compared with the control
T1 construct: purchased Millipore
Method: (§4) A kinase profile assay was performed by Millipore, to examine other potential targets of Compound 1. Only Akt2 activity was suppressed more than 50% after 5 μM compound 1 treatment, compared with the control (Table 2). In addition, the kinase activity of Aurora A was decreased less than 25% at 5 μM Compound 1.

Met = target: T2, Met (Homo sapiens, UniProt P08581); assay: Kinase profile assay (Millipore); format: biochemical; conditions: 5 μM
T2 construct: purchased Millipore
Method: as §4

PKB beta (Akt2) = target: T3, PKB beta (Akt2) (Homo sapiens, UniProt P31751); assay: Kinase profile assay (Millipore); format: biochemical
T3 construct: purchased Millipore
Method: as §4

MRC-5 normal lung cells = assay: Cytotoxicity (MTS assay); format: cell-based
Method: To estimate the cytotoxicity of Compound 1, cells are seeded (8×10^3 cells per well) in 96-well plates and cultured overnight. Cells are fed with fresh medium and treated with different doses of Compound 1. After culturing for various times, the cytotoxicity of Compound 1 is measured using an MTS assay kit (Promega, Madison, Wis.) according to the manufacturer's instructions.
The toxicity of Compound 1 on both MRC-5 normal lung cells and A549 lung cancer cells was then examined.

[6] = tested on: human A549 lung cancer cell xenografts; assay: A549 xenograft in athymic nude mice, intraperitoneal; format: in vivo
Method: Tumor tissues from mice are embedded in a paraffin block and subjected to hematoxylin and eosin (H&E) staining and immunohistochemistry. Tumor tissues are deparaffinized and hydrated, then permeabilized with 0.5% Triton X-100/1 PBS for 10 min, hybridized with Ki-67 (1:500) as the primary antibody and an HRP-conjugated goat anti-rabbit or mouse IgG antibody is used as the secondary antibody. After developing with 3,30-diaminobenzidine, the sections are counterstained with H&E. All sections are observed by microscope and the Image-Pro Plus software (v.4) program (Media Cybernetics).
The ability of Compound 1 to inhibit the growth of human A549 lung cancer cell xenografts in athymic nude mice was then evaluated. Tumor volumes were measured twice a week and mouse weights were determined once a week. Compound 1 caused a marked reduction in tumor size in the human A549 xenograft model. In mice treated with Compound 1 at 20 mg/kg, twice a week intraperitoneally, mean tumor volumes were reduced to 164 mm^3 in comparison with control group (408 mm^3) (P<0.01). […] Moreover, the effects of Compound 1 on a tumor proliferation marker were evaluated by immunohistochemistry and H&E staining of A549 tumor tissues after the 31 days of treatment.

T3 sequence (P31751 whole entry, species assumed): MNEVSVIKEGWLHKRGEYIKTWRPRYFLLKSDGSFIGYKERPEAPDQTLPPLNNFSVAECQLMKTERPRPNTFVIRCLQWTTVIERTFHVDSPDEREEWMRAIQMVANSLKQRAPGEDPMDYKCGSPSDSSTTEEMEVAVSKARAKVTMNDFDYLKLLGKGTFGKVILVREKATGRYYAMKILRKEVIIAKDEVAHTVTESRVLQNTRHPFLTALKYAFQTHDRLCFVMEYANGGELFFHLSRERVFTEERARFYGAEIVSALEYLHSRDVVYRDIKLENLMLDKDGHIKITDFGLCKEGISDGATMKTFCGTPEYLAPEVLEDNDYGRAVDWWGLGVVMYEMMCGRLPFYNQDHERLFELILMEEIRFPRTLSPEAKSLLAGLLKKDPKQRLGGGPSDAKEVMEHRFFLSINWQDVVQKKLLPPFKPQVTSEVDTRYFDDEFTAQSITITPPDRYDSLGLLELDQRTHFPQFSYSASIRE
T2 sequence (P08581 25-1390): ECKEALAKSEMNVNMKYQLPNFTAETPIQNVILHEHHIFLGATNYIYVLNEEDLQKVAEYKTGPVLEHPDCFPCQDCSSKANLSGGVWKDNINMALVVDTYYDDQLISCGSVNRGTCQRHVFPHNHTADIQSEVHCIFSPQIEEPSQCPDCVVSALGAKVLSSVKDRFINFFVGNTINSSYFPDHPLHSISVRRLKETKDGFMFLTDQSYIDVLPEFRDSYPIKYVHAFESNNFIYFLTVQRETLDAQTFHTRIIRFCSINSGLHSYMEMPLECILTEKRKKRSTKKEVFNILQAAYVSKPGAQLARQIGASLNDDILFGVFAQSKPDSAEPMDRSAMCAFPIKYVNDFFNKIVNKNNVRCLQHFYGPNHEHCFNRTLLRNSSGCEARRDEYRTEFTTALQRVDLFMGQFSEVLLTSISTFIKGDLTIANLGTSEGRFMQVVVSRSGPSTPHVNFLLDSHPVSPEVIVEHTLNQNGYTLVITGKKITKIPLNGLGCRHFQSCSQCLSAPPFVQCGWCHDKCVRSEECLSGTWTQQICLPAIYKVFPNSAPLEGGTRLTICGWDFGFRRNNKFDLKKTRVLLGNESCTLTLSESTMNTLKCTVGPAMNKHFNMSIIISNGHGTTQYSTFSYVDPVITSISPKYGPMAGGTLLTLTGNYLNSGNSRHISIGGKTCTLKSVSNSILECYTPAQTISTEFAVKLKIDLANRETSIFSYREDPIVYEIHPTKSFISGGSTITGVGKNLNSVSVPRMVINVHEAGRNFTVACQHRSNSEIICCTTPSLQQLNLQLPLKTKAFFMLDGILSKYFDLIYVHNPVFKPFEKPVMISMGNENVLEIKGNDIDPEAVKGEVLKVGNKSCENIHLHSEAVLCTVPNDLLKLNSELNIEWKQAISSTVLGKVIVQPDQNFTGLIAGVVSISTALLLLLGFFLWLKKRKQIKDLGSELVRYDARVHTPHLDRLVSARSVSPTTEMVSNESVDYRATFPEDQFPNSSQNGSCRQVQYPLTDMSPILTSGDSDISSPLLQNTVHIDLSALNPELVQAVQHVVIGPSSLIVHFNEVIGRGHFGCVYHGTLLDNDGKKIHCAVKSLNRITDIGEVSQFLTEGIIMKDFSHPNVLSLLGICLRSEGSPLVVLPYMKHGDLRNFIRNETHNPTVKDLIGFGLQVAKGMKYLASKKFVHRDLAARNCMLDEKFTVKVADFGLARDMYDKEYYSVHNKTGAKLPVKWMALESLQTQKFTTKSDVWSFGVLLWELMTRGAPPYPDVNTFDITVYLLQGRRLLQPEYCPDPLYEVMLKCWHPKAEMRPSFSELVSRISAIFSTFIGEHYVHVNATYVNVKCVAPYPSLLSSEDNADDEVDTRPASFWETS
T1 sequence (O96017 whole entry, species assumed): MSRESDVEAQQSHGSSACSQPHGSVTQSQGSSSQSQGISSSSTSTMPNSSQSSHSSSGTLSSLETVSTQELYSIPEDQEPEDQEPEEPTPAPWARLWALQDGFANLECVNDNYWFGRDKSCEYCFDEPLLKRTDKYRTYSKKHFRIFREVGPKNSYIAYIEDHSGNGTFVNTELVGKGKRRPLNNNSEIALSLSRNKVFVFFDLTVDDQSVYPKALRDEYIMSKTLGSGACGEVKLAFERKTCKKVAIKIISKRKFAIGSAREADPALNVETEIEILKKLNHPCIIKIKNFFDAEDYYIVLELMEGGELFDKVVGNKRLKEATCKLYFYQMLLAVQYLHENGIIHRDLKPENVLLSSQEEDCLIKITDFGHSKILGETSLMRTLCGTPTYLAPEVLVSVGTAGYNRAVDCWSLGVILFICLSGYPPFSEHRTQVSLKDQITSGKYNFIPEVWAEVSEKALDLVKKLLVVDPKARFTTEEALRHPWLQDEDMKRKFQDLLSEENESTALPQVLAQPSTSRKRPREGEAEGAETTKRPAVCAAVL

## O=C(/C=C/c1ccc2c(c1)OCO2)/C=C1/C(=O)Nc2ccccc21 [Compound 1]
[1]
  histone H3 phosphorylation on Ser10 in cancer cells: suppressed
A549 cells [2]
  apoptosis (Annexin V/PI staining): 48%
H520 cells [3]
  apoptosis (Annexin V/PI staining): 82%
A549 cells [4]; A549, 0.5 μM
  decrease of anchorage-independent growth compared to control: more than 80%
A549 cells [4]; A549, 1 μM
  decrease of anchorage-independent growth compared to control: > 90%
H1650 cells; H1650, 0.5 μM
  decrease of anchorage-independent growth compared to control: more than 80%
H1650 cells; H1650, 1 μM
  decrease of anchorage-independent growth compared to control: > 90%
H520 cells [5]; H520, 0.5 μM
  decrease of anchorage-independent growth compared to control: more than 80%
H520 cells [5]; H520, 1 μM
  decrease of anchorage-independent growth compared to control: > 90%
CHK2
  remaining activity at 5 µM: 75%
Met
  kinase activity compared with the control: 89
PKB beta (Akt2); 5 μM
  Akt2 activity suppressed compared with the control (kinase profile): more than 50%
PKB beta (Akt2); PKB beta (Akt2), read-out: kinase activity compared with the control
  remaining activity at 5 µM: 47%
MRC-5 normal lung cells; 1 μM or less
  cytotoxic effects on MRC-5 normal lung cells: no obvious cytotoxic effects
MRC-5 normal lung cells; 5 μM, 48 hours
  toxicity to MRC-5 normal cells: not
MRC-5 normal lung cells; concentrations greater than 10 μM
  toxicity on MRC-5 normal lung cells: substantial toxicity
[6]; 20 mg/kg, twice a week intraperitoneally
  loss of body weight: no obvious loss
[6]; 20 mg/kg, twice a week intraperitoneally, control group 408 mm^3, P<0.01
  mean tumor volume: 164 mm^3
[6]; after the 31 days of treatment
  expression of Ki-67 in A549 tumor tissues (immunohistochemistry): markedly decreased
